Reference: patent US20060217340A1, “Methods and products for treating hypertension by modulation of TRPC3 channel activity” (University of Vermont and State Agricultural College, priority 2005, published 2006)

Legend:
TRPC3 = assay: Western analysis of TRPC3 protein expression in arteries; format: cell-based, rat; details: Angiotensin-II hypertensive rats; cerebral and mesenteric arteries
Procedure: (§1) Western Analysis. Arterial segments were homogenized in lysis buffer (5 minutes, 4° C.) containing (in mM): 40 CAPS, 1 DL-Dithiothreitol (DTT), 10 EDTA, 15 MgCl2, 115 NaCl, 1 NaOrthovanadate, 1 NaF, 2.5 Urea, and 0.25% deoxychlorate, 10% glycerol, 1% NP-40, 0.2% SDS, and 1:50 mammalian protease inhibitor cocktail (Sigma, St. Louis, Mo., USA). Equal amounts of sample protein were separated on a 10% polyacrylamide gel and transferred to a nitrocellulose membrane. The membranes were exposed to a TRPC3 or TRPC6 polyclonal antibody (anti-rabbit 1:200 dilution, Alomone Labs, Jerusalem, Israel) and a […] (GAPDH) monoclonal antibody (anti-mouse, 1:1000 dilution, Chemicon Labs, Temecula, Calif., USA). Alexa-Fluor 680® goat anti-rabbit (Molecular Probes, Eugene, Oreg., USA) and IRDyeTM800 anti-mouse (Rockland Immunochemicals, Gilbertsville, Pa., USA) were used to fluorescently label the TRPC3 and GAPDH antibodies respectively. The density of signals specific for the TRPC3 and GAPDH bands in a given lane on a membrane were measured after scanning the membrane with an Odyssey® infared imaging system (Li-COR Biosciences, Lincoln, Nebr., USA). Quantified amounts were normalized to a total protein amount lane on the polyacrylamide gel.
Oligodeoxynucleotide Sequences and Reverse Permeabilization. TRPC6 sense and antisense oligodeoxynucleotides (ODN's) were designed as previously described (Welsh et al 2002 Circ Res 90, 248-250) and were as follows: sense, 5′-[…]-3′ (SEQ ID: 3) and 5′-GCACACGCAGCCTCTTCAC-3′ (SEQ ID: 4) antisense, 5′-[…]-3′ (SEQ ID: 5) and 5′-[…]-3′ (SEQ ID: 6). TRPC3 sense and antisense ODN's were designed based on the rat TRPC3 gene (Ohki et al 2000 J Biol Chem 275: 39055-39060) and are as follows: sense, 5′-[…]-3′ (SEQ ID: 7) and 5′-[…]-3′ (SEQ ID: 8); anti-sense, 5′-[…]-3′ (SEQ ID: 9) and 5′-[…]-3′ (SEQ ID: 10). The last five bases on the 5′ and 3′ end were phosphorothioated in order to limit ODN degradation. […]

[1] = Blood pressure (MAP) by tailcuff; format: in vivo, rat; details: 12 days subcutaneous osmotic pump, tailcuff just prior to euthanasia
Procedure: Animals and tissues. Twelve- to 16-week old male Sprague-Dawley rats, spontaneously hypertensive rats (SHR), and Wistar-Kyoto rats ([…]) (Charles River Laboratories, St. Constant, Canada) were studied. All animal use procedures were in accordance with institutional guidelines and approved by the institutional Animal Care and Use Committee at the University of Vermont. Rats were euthanized with an injection of pentobarbitone (150 mg/kg ip) followed by exsanguination. The brain was removed and cerebellar and cerebral arteries (between 125 and 225 μm diameter) were dissected free in ice-cold MOPS-buffered saline solution containing (in mM): 3 MOPS, 145 NaCl, 5 KCl, 1 MgSO4.7H2O, 2.5 CaCl2, 1 KH2PO4, 0.02 EGTA, 2 pyruvate, 5 glucose and 1% bovine serum albumin (BSA) at pH 7.4. Angiotensin II or a control vehicle (physiological saline solution) was administered for 12 days using a subcutaneous osmotic pump. Blood pressures (MAP) were measured by tailcuff just prior to euthanasia and averaged 93±2 mm Hg in control rats and 146±5 mm Hg in Angiotensin II treated rats.

TRPC6 = assay: Western analysis of TRPC6 protein expression in arteries; format: cell-based, rat; details: Angiotensin-II hypertensive rats; cerebral arteries
Procedure: as §1
Oligodeoxynucleotide Sequences and Reverse Permeabilization. […]

With “Angiotensin II (DRVYIHPF; Angiotensin-2; UniProt P01015 25-32, looked up)” the “expression of TRPC3 versus normotensive controls” value (TRPC3) was “trends towards increased expression”, the “Blood pressure (MAP)” value [1] was 146±5 mm Hg and the “expression of TRPC6 versus normotensive controls” value (TRPC6) was “increased expression”.
